In assay [1] the test system is mice. Description: Behavioral itching test (scratching induced by intradermal compound 48/80). Type of assay: in vivo. From the text: Data are presented as mean±SEM.
Mutant KO mice and littermate wild-type mice were used in the behaviour experiments. Mice were shaved at the back of the neck where intradermal injections of compound 48/80, which releases histamine from the mast cells, were then given.

Assay [2] has as its target T1, adenylyl cyclase subtype 5 (Homo sapiens, UniProt O95622).
T1 construct: expressed in transfected cells; host or cells: HEK293 (transient, 48 h)
Description: Biochemical screening test, AC5 transiently expressed in HEK293 cells. Type of assay: cell-based. The settings on record: read-out: Percent Inhibition AC5. Here is the method: (§1) For AC8 expression vector pcDNA3-AC1 transfection, HEK293 cells were plated onto 60-mm-diameter dishes at a density of 1×10^6 per plate, grown overnight and transfected with pcDNA3-AC1 (0.8 μg DNA per plate) by Lipofectamine 2000 (Invitrogen). Stable transfected clones were selected in culture media containing 0.8 mg/ml G418 (Invitrogen, CA) and maintained in this media. For transient expression of other AC isoforms in HEK293 cells, HEK293 cells were plated in 96 well tissue culture dishes and transfected with plasmids for AC5, respectively, experiments were carried out at 48 h after transfection.
(§2) The HEK293 cells expressing ACs were harvested and lysed in 0.1 M HCl after different treatments. Direct cAMP measurements were performed using the direct cAMP enzyme immunoassay kit (Assay Designs, MI) and optical density values were measured at 405 nm by the microplate reader. Phosphodiesterase was inhibited by the addition of 1 mM 3-isobutyl-1 methylxanthine (Sigma, Mo.) to cultures.
The HEK293 cells were subcultured into 96-well plates in the absence of antibiotics and grown overnight and transfected with the pGL3-CRE-firefly luciferase and pGL3-CMV-Renilla luciferase constructs (0.25 μg DNA per well) by Lipofectamine 2000 reagent. […] Relative light units were measured using a SIRIUS luminometer.

In assay [3] the test system is adenylyl cyclase subtype 8. Briefly: Biochemical screening test for AC8 inhibitors (cAMP assay in HEK293 cells expressing ACs). The format is cell-based. The settings on record: 100 μM. Here is the method: as §1, §2
The HEK293 cells were subcultured into 96-well plates in the absence of antibiotics and grown overnight and transfected with the pGL3-CRE-firefly luciferase and pGL3-CMV-Renilla luciferase constructs (0.25 μg DNA per well) by Lipofectamine 2000 reagent. The transfected cells were incubated overnight, and media were changed to DMEM containing 10% fetal bovine serum. After 48 h, the cells were treated with 10 μM forskolin, 10 μM A23187 and 2 mM CaCl2, or a combination of 10 μM forskolin, 10 μM A23187 and 2 mM CaCl2, in the absence or presence of each chemical tested at the concentration of 100 μM. At the end of 6 hours, incubation cells were harvested and luciferase activity was assayed by Dual-Luciferase Reporter Assay System (Promega). Relative light units were measured using a SIRIUS luminometer.
A set of biochemical screening tests were carried out to search for potential selective AC8 inhibitors. cAMP assay, gene-activation (pCREB) assay in AC8 expressed cell lines, as well as integrative physiological experiments were employed to screen for potential AC8 inhibitors. The effect of Compound A and B on AC8 was determined.

Assay [4] concerns wild-type mice. Description: Open field test, animal model of behavioral anxiety. The format is in vivo. Details: anti-anxiety effects in the open field test: dose or concentration left out as unconfirmed. From the text: Animals were placed in the open field immediately after an IP injection. […] B) Mice injected with AC8 inhibitor (filled circles) traveled more than control mice injected with saline (open circles). *P<0.05
A round, green, plastic tub with diameter 43.5 cm was used to create an open arena for the mouse to travel. The floor was made of clear Plexiglas. Each trial consisted of exposing the mouse to a bright light (685 lux) in the arena for the first minute, followed immediately by exposing the mouse only to dim light (1 lux) for another minute. The mouse's movements were captured using video camera tracking software (Ethovision, Noldus Va.) and the distance from the border of the arena, the distance from the centre of the arena, and the total distance traveled were measured. The percent difference in these factors between bright and dim light periods were also calculated. After each 2 min testing session, the mouse was removed and placed back in its home cage and the arena was cleaned with 70% ethanol solution.

SMILES strings stand for the structures.

T1 sequence (O95622 whole entry): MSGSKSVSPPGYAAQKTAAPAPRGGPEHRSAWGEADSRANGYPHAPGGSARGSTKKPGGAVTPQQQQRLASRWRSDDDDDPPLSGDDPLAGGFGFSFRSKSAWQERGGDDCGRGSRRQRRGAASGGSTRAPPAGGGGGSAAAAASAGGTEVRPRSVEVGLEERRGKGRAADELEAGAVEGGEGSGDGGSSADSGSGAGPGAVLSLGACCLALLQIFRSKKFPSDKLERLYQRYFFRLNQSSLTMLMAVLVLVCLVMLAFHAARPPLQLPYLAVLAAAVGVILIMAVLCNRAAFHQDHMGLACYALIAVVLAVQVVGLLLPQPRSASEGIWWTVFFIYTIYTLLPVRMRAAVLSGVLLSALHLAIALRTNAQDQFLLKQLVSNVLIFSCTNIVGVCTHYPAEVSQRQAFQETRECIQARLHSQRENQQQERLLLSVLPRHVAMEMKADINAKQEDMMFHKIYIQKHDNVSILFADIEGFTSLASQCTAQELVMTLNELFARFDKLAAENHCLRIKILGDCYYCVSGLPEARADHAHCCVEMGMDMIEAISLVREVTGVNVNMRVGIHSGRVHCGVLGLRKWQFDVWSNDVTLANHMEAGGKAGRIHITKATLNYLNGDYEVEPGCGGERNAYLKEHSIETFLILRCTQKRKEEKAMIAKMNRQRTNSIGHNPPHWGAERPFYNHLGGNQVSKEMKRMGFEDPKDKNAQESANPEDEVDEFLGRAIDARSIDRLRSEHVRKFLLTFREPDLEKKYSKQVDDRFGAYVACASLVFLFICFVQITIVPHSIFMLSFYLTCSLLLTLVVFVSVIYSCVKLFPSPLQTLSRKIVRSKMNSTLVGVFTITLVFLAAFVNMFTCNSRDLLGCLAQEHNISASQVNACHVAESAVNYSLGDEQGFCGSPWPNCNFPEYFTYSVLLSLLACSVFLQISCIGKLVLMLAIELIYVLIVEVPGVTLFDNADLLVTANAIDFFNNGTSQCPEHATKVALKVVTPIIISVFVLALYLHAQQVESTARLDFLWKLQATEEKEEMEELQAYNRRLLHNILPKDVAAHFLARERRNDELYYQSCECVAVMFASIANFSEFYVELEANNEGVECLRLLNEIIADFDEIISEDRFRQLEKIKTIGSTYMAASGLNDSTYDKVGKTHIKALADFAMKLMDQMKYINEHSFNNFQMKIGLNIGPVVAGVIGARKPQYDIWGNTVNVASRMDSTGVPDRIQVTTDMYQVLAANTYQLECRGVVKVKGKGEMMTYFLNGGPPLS

What is called inhibition is the relative decrease from the control value, in per cent. As to `Cc1ccc(OCCn2c(S)nc3c(N)ncnc32)cc1` [Compound A, 6-amino-9-(2-p-tolyloxy-ethyl)-9H-purine-8-thiol], in assay [1] (5 mg/kg i.p., n=6 mice vs wild-type mice n=7, P<0.05), the “total scratching responses induced by intradermal compound 48/80 (100 μg/50 μl)” value is given as “significantly reduced”. In assay [1] (systemic injection 5 mg/kg), the “anti-itching effects in the itching test” value is “significant anti-itching effects”. Also, the inhibition at 100 µM in assay [2] is 25 ± 4%. In assay [3], the “Percent Inhibition AC8” value was found to be 88 ± 2% inhibition and the “inhibition of AC8 activity” value is “significant inhibition”. Besides, the “ambulatory counts in open field” value in assay [4] (5 mg/kg, i.p., placed in open field immediately after injection, vs saline, n=6, P<0.05) is on record as “significantly more ambulatory counts”. For the same compound, the “distance traveled in open field” value in assay [4] (5 mg/kg, i.p., vs saline, P<0.05) was “traveled more”. For the same compound, the “anti-anxiety effects in the open field test” value in assay [4] (systemic injection, n=7 mice) is “significant anti-anxiety effects”.
With `c1nc(N2CCOCC2)c2nc[nH]c2n1` [Compound B, 4-(9H-purin-6-yl)morpholine], in assay [3], the “Percent Inhibition AC8” value turned out to be 86 ± 2% and the “inhibition of AC8 activity” value is “significant inhibition”.

The record behind these values is US20110098295A1, “METHODS OF TREATING ANXIETY, ITCHING AND PSYCHIATRIC DISORDERS” (priority 2009, published 2011).
